Consider eight molecules from US5045567A, “Propanolamine derivatives having anti-diabetic effects” (Hoffmann-La Roche Inc., priority 1989, dated 1991).

The nature of data set [1]: Activity on oxygen consumption (male albino rats in metabolic cages, per os). It is filed as in vivo. The following applies: po; for response vs control in vivo at 3 µM, 3 µmol/kg: dosage 3 μM/kg. The protocol:
(1) -Activity on oxygen consumption
Male albino rats weighing 160-180 g were placed in metabolic cages after fasting for 24 hours. The cages were ventilated with a constant 6 liter room air/minute which was equilibrated at a dew point of 11° C. Samples of the spent air were collected during periods of in each case 14 minutes after again equilibrating and the oxygen content and CO2 content were analyzed. After an adaptation time of 4 hours the animals, divided into groups of 6, received either placebo (5% gum arabic) or the test substance (suspended in 5% gum arabic) per os. Thereafter, the determinations were carried out for a period of 12 hours. In Table I the average oxygen consumption after medication during the first 3 hours and the entire test duration (12 hours) is given as percentage of the oxygen consumption during the adaptation period. Corresponding corrections for changes in the placebo group have been taken into consideration.

A short description of data set [2]: Activity on heart rate (male albino rats, electrocardiogram, per os). The settings on record: rat; for Heart rate (% of controls), 1 hour: 1 hour after treatment; for Heart rate (% of controls), 3 hours: 3 hours after treatment. The class given is in vivo. The protocol:
(2) Activity on heart rate
Male albino rats weighing 250-320 g received 6 hours after withdrawl of food either placebo (5% gum arabic) or the test substance (suspended in 5% gum arabic) per os. The animals were subsequently immobilized in perforated plastic tubes. The electrocardiogram was derived by means of bipolar subcutaneous needle electrodes. The R-peak was used to trigger a beat counter. The heart rate measured 1 and 3 hours after treatment was given in Table II as a percentage of the control value (placebo).

Setting [3] is: 3 h, rat, per os, 1st-3rd hour, corrected for changes in placebo group, read-out: O2 consumption, % of the value of the pre-period, 1st-3rd hour.
Where [4] appears, read: 12 h, rat, per os, 1st-12th hour, corrected for changes in placebo group, read-out: O2 consumption, % of the value of the pre-period, 1st-12th hour.
[5] abbreviates: 3 h, rat, per os, dosage 10 μM/kg, 1st-3rd hour, corrected for changes in placebo group, read-out: O2 consumption, % of the value of the pre-period, 1st-3rd hour.
[6] abbreviates: 12 h, rat, per os, dosage 10 μM/kg, 1st-12th hour, corrected for changes in placebo group, read-out: O2 consumption, % of the value of the pre-period, 1st-12th hour.

Where a name gives a salt, the structure may show the parent alone. Read-outs that look alike come from different tables or passages of the source.

With `CCOCCOc1ccc(CCNCC(CO)c2cccc(Cl)c2)cc1.O=C(O)C(=O)O` (stereo not drawn) [Example 2b, m-chloro-β-[[[p-(2-ethoxyethoxy)phenethyl]amino]methyl]phenethyl alcohol oxalate], the response vs control in vivo at 3 µM, 3 µmol/kg amounted to 124% in data set [1] (setting [3]) and 107% in data set [1] (setting [4]). For the same molecule, the “Heart rate (% of controls), 1 hour” value in data set [2] (dosage 30 mg/kg) is recorded as 106 % of controls; in data set [2] (dosage 100 mg/kg), 114 % of controls. In addition, the “Heart rate (% of controls), 3 hours” value in data set [2] (dosage 30 mg/kg) is 99 % of controls; in data set [2] (dosage 100 mg/kg) it was 105 % of controls.
Take `CCOCCOc1ccc(CCNCC(CO)c2ccccc2)cc1.O=C(O)C(=O)O` (single isomer, unassigned) [Example 3a, (R or S)-β-[[[p-(2-ethoxyethoxy)phenethyl]amino]methyl]-phenethyl alcohol oxalate]: the response vs control in vivo at 3 µM, 3 µmol/kg in data set [1] (setting [3]) is 152%; in data set [1] (setting [4]), 112%. The “Heart rate (% of controls), 1 hour” value in data set [2] (dosage 10 mg/kg) is given as 108 % of controls; in data set [2] (dosage 30 mg/kg), 115 % of controls.
Regarding `OCC(CNCCc1ccc(OCCOCCc2ccccc2)cc1)c1ccccc1` (stereo not drawn) [Example 2j, β-[[[p-(2-phenethoxy)ethoxy]phenethyl]amino]methyl]phenethyl alcohol oxalate], the response vs control in vivo at 10 µM, 10 µmol/kg amounted to 137% in data set [1] (setting [5]) and 113% in data set [1] (setting [6]). The “Heart rate (% of controls), 1 hour” value in data set [2] (dosage 100 mg/kg) is listed as 110 % of controls.
As to `CCOCCOc1ccc(CCN(CC(CO)c2cccc(Cl)c2)C[C@H](O)c2ccccc2)cc1` (stereo partly shown) [Example 2d, oxalate], the values for the response vs control in vivo at 3 µM, 3 µmol/kg in data set [1] (setting [3]) and in data set [1] (setting [4]) were 152% and 127%, respectively. Besides, the figures for the “Heart rate (% of controls), 1 hour” value in data set [2] (dosage 10 mg/kg) and in data set [2] (dosage 30 mg/kg) were 103 % of controls and 111 % of controls, respectively. The figures for the “Heart rate (% of controls), 3 hours” value in data set [2] (dosage 10 mg/kg) and in data set [2] (dosage 30 mg/kg) were 100 % of controls and 104 % of controls, respectively.
For `CCOCCOc1ccc(CCN(CC(CO)c2ccccc2)CC(CO)c2ccccc2)cc1` (racemic) [Example 2c], the response vs control in vivo at 3 µM, 3 µmol/kg in data set [1] (setting [3]) came to 132%; in data set [1] (setting [4]), 108%. Moreover, the “Heart rate (% of controls), 1 hour” value is recorded as 103 % of controls in data set [2] (dosage 10 mg/kg) and 111 % of controls in data set [2] (dosage 30 mg/kg). The “Heart rate (% of controls), 3 hours” value in data set [2] (dosage 10 mg/kg) is listed as 102 % of controls; in data set [2] (dosage 30 mg/kg) it was 104 % of controls.
On to `CCOCCOc1ccc(CCNCC(CO)c2cccs2)cc1.O=C(O)C(=O)O` (stereo not drawn) [Example 2o, β-[[[p-(2-ethoxyethoxy)phenethyl]amino]methyl]-2-thiophene-ethanol oxalate], for which the values for the response vs control in vivo at 10 µM, 10 µmol/kg in data set [1] (setting [5]) and in data set [1] (setting [6]) were 147% and 115%, respectively. The entries for the “Heart rate (% of controls), 1 hour” value in data set [2] (dosage 30 mg/kg) and in data set [2] (dosage 100 mg/kg) were 108 % of controls and 111 % of controls, respectively.
On to `CCOCCOc1ccc(C[C@@H](C)NCC(CO)c2ccccc2)cc1.O=C(O)C(=O)O` (stereo partly drawn) [Example 2a, β-[[[(R)-p-(2-ethoxyethoxy)-α-methylphenethyl]amino]-methyl]-phenethyl alcohol oxalate], for which the response vs control in vivo at 10 µM, 10 µmol/kg in data set [1] (Rattus norvegicus, 3 h, read-out: O2 consumption, % of the value of the pre-period, 1st-3rd hour) came out at 149%; in data set [1] (Rattus norvegicus, 12 h, read-out: O2 consumption, % of the value of the pre-period, 1st-12th hour), 113%. In addition, the “Heart rate (% of controls), 1 hour” value in data set [2] (dosage 30 mg/kg) is 105 % of controls; in data set [2] (dosage 100 mg/kg), 121 % of controls. In addition, the “Heart rate (% of controls), 3 hours” value in data set [2] (dosage 30 mg/kg) was 100 % of controls; in data set [2] (dosage 100 mg/kg), 112 % of controls.
Turning to `CCOC(=O)COc1ccc(CCNCC(CO)c2ccccc2)cc1` (stereo not drawn) [Example 4, ethyl [p-[2-[[β-(hydroxymethyl)phenethyl]-amino]ethyl]phenoxy]acetate hydrochloride], the values for the response vs control in vivo at 3 µM, 3 µmol/kg in data set [1] (setting [3]) and in data set [1] (setting [4]) were 145% and 112%, respectively.
